The record followed here is patent US10954232B2, “Pyrazole derivative as ALK5 inhibitor and uses thereof” (HANMI PHARMACEUTICAL CO., LTD., priority 2016, dated 2021).

A value given as a limit tells only on which side of the number the result lay.

The target in the test is T1, ALK5 kinase (Homo sapiens, UniProt P36897).
T1 construct: GST; purchased Thermo Fisher Scientific Solutions
T1 sequence (P36897 34-503): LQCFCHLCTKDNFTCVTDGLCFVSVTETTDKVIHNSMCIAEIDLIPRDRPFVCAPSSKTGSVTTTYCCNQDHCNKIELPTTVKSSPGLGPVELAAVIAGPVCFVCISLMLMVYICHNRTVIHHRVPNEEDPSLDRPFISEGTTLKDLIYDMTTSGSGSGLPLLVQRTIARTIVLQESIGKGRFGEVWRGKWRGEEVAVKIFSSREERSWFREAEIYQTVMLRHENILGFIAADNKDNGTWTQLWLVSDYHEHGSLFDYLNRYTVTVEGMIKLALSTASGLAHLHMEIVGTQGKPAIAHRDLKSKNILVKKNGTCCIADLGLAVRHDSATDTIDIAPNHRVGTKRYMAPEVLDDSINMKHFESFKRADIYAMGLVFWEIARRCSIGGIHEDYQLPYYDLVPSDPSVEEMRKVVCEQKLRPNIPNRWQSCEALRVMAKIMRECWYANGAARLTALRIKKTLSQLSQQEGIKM
Nature of the test: Activity inhibition test on ALK5 enzyme (LanthaScreen Eu binding kinase assay). Particulars: kinase tracer 178, 60 minutes at room temperature. The procedure, abridged: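 TR-FRET tracer-displacement format with final 5 nM ALK5, 2 nM Eu-GST antibody and 10 nM kinase tracer 178. Compound dilution series ran 1 μM–0.0001 μM, incubated 60 min at room temperature with stirring. Fluorescence was read ([…]), and IC50 came from percent inhibition versus control.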
Background: In TR-FRET formats the signal depends on donor and acceptor labels being close together.

In general, IC50 refers to the concentration at which inhibition is half-maximal. The low end stands for inhibition by little substance, the high end for a need for much substance.

Consider `Cc1cccc(-n2nc(C(=O)NCc3ccc(F)cc3)cc2-c2ccc3ncnn3c2)n1` [Example 157, 5-([1,2,4]triazolo[1,5-α]pyridin-6-yl)-N-(4-fluorobenzyl)-1-(6-methylpyridin-2-yl)-1H-pyrazole-3-carboxyamide], for which the half-maximal inhibitory concentration (IC50) lay in the range of 10 to 100 nM.
`COc1cccc(CNC(=O)c2cc(-c3ccc4ncnn4c3)n(-c3cccc(C)n3)n2)c1` [Example 158, 5-([1,2,4]triazolo[1,5-α]pyridin-6-yl)-N-(3-methoxybenzyl)-1-(6-methylpyridin-2-yl)-1H-pyrazole-3-carboxyamide] gave an IC50 of 10 to 100 nM.
With `COc1ccc(CNC(=O)c2cc(-c3ccc4ncnn4c3)n(-c3cccc(C)n3)n2)cc1` [Example 159, 5-([1,2,4]triazolo[1,5-α]pyridin-6-yl)-N-(4-methoxybenzyl)-1-(6-methylpyridin-2-yl)-1H-pyrazole-3-carboxyamide] the figure was 10 to 100 nM; with `Cc1cccc(-n2nc(C(=O)NCc3ccc(N(C)C)cc3)cc2-c2ccc3ncnn3c2)n1` [Example 160, 5-([1,2,4]triazolo[1,5-α]pyridin-6-yl)-N-(4-(dimethylamino)benzyl)-1-(6-methylpyridin-2-yl)-1H-pyrazole-3-carboxyamide], 10 to 100 nM; with `CC(=O)Nc1ccc(CNC(=O)c2cc(-c3ccc4ncnn4c3)n(-c3cccc(C)n3)n2)cc1` [Example 161, 5-([1,2,4]triazolo[1,5-α]pyridin-6-yl)-N-(4-acetamidobenzyl)-1-(6-methylpyridin-2-yl)-1H-pyrazole-3-carboxyamide], 10 to 100 nM.
The figure for `Cc1cccc(-n2nc(C(=O)Nc3cnn(S(C)(=O)=O)c3)cc2-c2ccc3ncnn3c2)n1` [Example 162, 5-([1,2,4]triazolo[1,5-α]pyridin-6-yl)-1-(6-methylpyridin-2-yl)-N-(1-(methylsulfonyl)-1H-pyrazol-4-yl)-1H-pyrazole-3-carboxyamide] is 2 nM.
Turning to `COc1ccc(NC(=O)c2cc(-c3ccc4nccnc4c3)n(-c3cccc(C)n3)n2)cc1` [Example 164, N-(4-methoxyphenyl)-1-(6-methylpyridin-2-yl)-5-(quinoxalin-6-yl)-1H-pyrazole-3-carboxyamide], the IC50 was found to be 18 nM.
In the case of `COc1cccc(NC(=O)c2cc(-c3ccc4nccnc4c3)n(-c3cccc(C)n3)n2)c1` [Example 165, N-(3-methoxyphenyl)-1-(6-methylpyridin-2-yl)-5-(quinoxalin-6-yl)-1H-pyrazole-3-carboxyamide], the IC50 turned out to be 24 nM.
With `COc1ccccc1NC(=O)c1cc(-c2ccc3nccnc3c2)n(-c2cccc(C)n2)n1` [Example 166, N-(2-methoxyphenyl)-1-(6-methylpyridin-2-yl)-5-(quinoxalin-6-yl)-1H-pyrazole-3-carboxyamide] the figure was approximately 100 nM; with `COCCOc1ccc(NC(=O)c2cc(-c3ccc4nccnc4c3)n(-c3cccc(C)n3)n2)cc1` [Example 167, N-(4-(2-methoxyethoxy)phenyl)-1-(6-methylpyridin-2-yl)-5-(quinoxalin-6-yl)-1H-pyrazole-3-carboxyamide], not above 100 nM; with `Cc1cccc(-n2nc(C(=O)Nc3ccc4c(c3)OCO4)cc2-c2ccc3nccnc3c2)n1` [Example 168, N-(benzo[d][1,3]dioxol-5-yl)-1-(6-methylpyridin-2-yl)-5-(quinoxalin-6-yl)-1H-pyrazole-3-carboxyamide], not above 100 nM.
`Cc1cccc(-n2nc(C(=O)Nc3ccc4c(c3)OCCO4)cc2-c2ccc3nccnc3c2)n1` [Example 169, N-(2,3-dihydrobenzo[b][1,4]dioxin-6-yl)-1-(6-methylpyridin-2-yl)-5-(quinoxalin-6-yl)-1H-pyrazole-3-carboxyamide]: the IC50 fell in the range of 10 to 100 nM.
In the case of `Cc1cccc(-n2nc(C(=O)Nc3ccc(N(C)C)cc3)cc2-c2ccc3nccnc3c2)n1` [Example 170, N-(4-(dimethylamino)phenyl)-1-(6-methylpyridin-2-yl)-5-(quinoxalin-6-yl)-1H-pyrazole-3-carboxyamide], the IC50 is less than 100 nM.
With `Cc1cccc(-n2nc(C(=O)Nc3ccc(N4CCOCC4)cc3)cc2-c2ccc3nccnc3c2)n1` [Example 171, 1-(6-methylpyridin-2-yl)-N-(4-morpholinophenyl)-5-(quinoxalin-6-yl)-1H-pyrazole-3-carboxyamide] the figure was 10 to 100 nM; with `Cc1cccc(-n2nc(C(=O)Nc3ccc(N4CCN(C)CC4)cc3)cc2-c2ccc3nccnc3c2)n1` [Example 172, N-(4-(4-methylpiperazin-1-yl)phenyl)-1-(6-methylpyridin-2-yl)-5-(quinoxalin-6-yl)-1H-pyrazole-3-carboxyamide], 10 to 100 nM; with `CC(=O)N1CCN(c2ccc(NC(=O)c3cc(-c4ccc5nccnc5c4)n(-c4cccc(C)n4)n3)cc2)CC1` [Example 173, N-(4-(4-acetylpiperazin-1-yl)phenyl)-1-(6-methylpyridin-2-yl)-5-(quinoxalin-6-yl)-1H-pyrazole-3-carboxyamide], 10 to 100 nM.
The figure for `Cc1cccc(-n2nc(C(=O)Nc3ccc(C#N)cc3)cc2-c2ccc3nccnc3c2)n1` [Example 174, N-(4-cyanophenyl)-1-(6-methylpyridin-2-yl)-5-(quinoxalin-6-yl)-1H-pyrazole-3-carboxyamide] is less than 100 nM.
With `Cc1cccc(-n2nc(C(=O)Nc3cccc(C#N)c3)cc2-c2ccc3nccnc3c2)n1` [Example 175, N-(3-cyanophenyl)-1-(6-methylpyridin-2-yl)-5-(quinoxalin-6-yl)-1H-pyrazole-3-carboxyamide] the figure was less than 100 nM; with `Cc1cccc(-n2nc(C(=O)Nc3ccc(CN4CCOCC4)cc3)cc2-c2ccc3nccnc3c2)n1` [Example 177, 1-(6-methylpyridin-2-yl)-N-(4-(morpholinomethyl)phenyl)-5-(quinoxalin-6-yl)-1H-pyrazole-3-carboxyamide], approximately 100 nM.
On to `CC(=O)c1ccc(NC(=O)c2cc(-c3ccc4nccnc4c3)n(-c3cccc(C)n3)n2)cc1` [Example 178, N-(4-acetylphenyl)-1-(6-methylpyridin-2-yl)-5-(quinoxalin-6-yl)-1H-pyrazole-3-carboxyamide], for which the IC50 was in the range of 10 to 100 nM.
The figure for `CC(=O)c1cccc(NC(=O)c2cc(-c3ccc4nccnc4c3)n(-c3cccc(C)n3)n2)c1` [Example 179, N-(3-acetylphenyl)-1-(6-methylpyridin-2-yl)-5-(quinoxalin-6-yl)-1H-pyrazole-3-carboxyamide] is less than 100 nM; for `Cc1cccc(-n2nc(C(=O)Nc3ccc(C(F)(F)F)cc3)cc2-c2ccc3nccnc3c2)n1` [Example 180, 1-(6-methylpyridin-2-yl)-5-(quinoxalin-6-yl)-N-(4-(trifluoromethyl)phenyl)-1H-pyrazole-3-carboxyamide] it is 100 to 1000 nM; for `Cc1cccc(-n2nc(C(=O)Nc3cccc(C(F)(F)F)c3)cc2-c2ccc3nccnc3c2)n1` [Example 181, 1-(6-methylpyridin-2-yl)-5-(quinoxalin-6-yl)-N-(3-(trifluoromethyl)phenyl)-1H-pyrazole-3-carboxyamide] it is approximately 100 nM.
The figure for `CNC(=O)c1ccc(NC(=O)c2cc(-c3ccc4nccnc4c3)n(-c3cccc(C)n3)n2)cc1` [Example 182, N-(4-(methylcarbamoyl)phenyl)-1-(6-methylpyridin-2-yl)-5-(quinoxalin-6-yl)-1H-pyrazole-3-carboxyamide] is less than 100 nM.
`Cc1cccc(-n2nc(C(=O)Nc3ccc(F)cc3)cc2-c2ccc3nccnc3c2)n1` [Example 183, N-(4-fluorophenyl)-1-(6-methylpyridin-2-yl)-5-(quinoxalin-6-yl)-1H-pyrazole-3-carboxyamide] had an IC50 of 10 to 100 nM.
Consider `Cc1cccc(-n2nc(C(=O)Nc3cccc(F)c3)cc2-c2ccc3nccnc3c2)n1` [Example 184, N-(3-fluorophenyl)-1-(6-methylpyridin-2-yl)-5-(quinoxalin-6-yl)-1H-pyrazole-3-carboxyamide], for which the IC50 fell in the range of 10 to 100 nM.
The figure for `Cc1cccc(-n2nc(C(=O)Nc3ccccc3F)cc2-c2ccc3nccnc3c2)n1` [Example 185, N-(2-fluorophenyl)-1-(6-methylpyridin-2-yl)-5-(quinoxalin-6-yl)-1H-pyrazole-3-carboxyamide] is less than 100 nM.
With `Cc1cccc(-n2nc(C(=O)Nc3ccc(F)c(F)c3)cc2-c2ccc3nccnc3c2)n1` [Example 186, N-(3,4-difluorophenyl)-1-(6-methylpyridin-2-yl)-5-(quinoxalin-6-yl)-1H-pyrazole-3-carboxyamide] the figure was 10 to 100 nM; with `Cc1cccc(-n2nc(C(=O)Nc3ccc(F)cc3F)cc2-c2ccc3nccnc3c2)n1` [Example 187, N-(2,4-difluorophenyl)-1-(6-methylpyridin-2-yl)-5-(quinoxalin-6-yl)-1H-pyrazole-3-carboxyamide], 10 to 100 nM; with `Cc1cccc(-n2nc(C(=O)Nc3ccc(Cl)cc3)cc2-c2ccc3nccnc3c2)n1` [Example 189, N-(4-chlorophenyl)-1-(6-methylpyridin-2-yl)-5-(quinoxalin-6-yl)-1H-pyrazole-3-carboxyamide], 10 to 100 nM.
With `Cc1cccc(-n2nc(C(=O)Nc3ccccc3Cl)cc2-c2ccc3nccnc3c2)n1` [Example 190, N-(2-chlorophenyl)-1-(6-methylpyridin-2-yl)-5-(quinoxalin-6-yl)-1H-pyrazole-3-carboxyamide] the figure was 100 to 1000 nM.
